In PubChem BioAssay (NCI):
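96-well plates; 48 h exposure; 5 concentrations. Endpoints by linear interpolation between flanking doses. Not reached: highest tested concentration assigned. GI50 = concentration required for 50% inhibition of growth. TGI marks complete inhibition of growth.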

Experiments:
Experiment in all cases: growth of human tumour cells (NCI), 48 h
NCI-H23 lung = test system: NCI-H23 lung
NCI-H460 lung = test system: NCI-H460 lung
NCI-H522 lung = test system: NCI-H522 lung
NCI/ADR-RES ovarian = test system: NCI/ADR-RES ovarian
OVCAR-3 ovarian = test system: OVCAR-3 ovarian
OVCAR-4 ovarian = test system: OVCAR-4 ovarian
OVCAR-5 ovarian = test system: OVCAR-5 ovarian
OVCAR-8 ovarian = test system: OVCAR-8 ovarian
PC-3 prostate = test system: PC-3 prostate
RPMI-8226 leukemia = test system: RPMI-8226 leukemia
RXF 393 renal = test system: RXF 393 renal
SF-268 CNS = test system: SF-268 CNS
SF-295 CNS = test system: SF-295 CNS
SF-539 CNS = test system: SF-539 CNS
SK-MEL-28 melanoma = test system: SK-MEL-28 melanoma
SK-MEL-5 melanoma = test system: SK-MEL-5 melanoma
SK-OV-3 ovarian = test system: SK-OV-3 ovarian
SN12C renal = test system: SN12C renal
SNB-19 CNS = test system: SNB-19 CNS
SNB-75 CNS = test system: SNB-75 CNS
SR leukemia = test system: SR leukemia
SW-620 colon = test system: SW-620 colon
T-47D breast = test system: T-47D breast
TK-10 renal = test system: TK-10 renal
UACC-257 melanoma = test system: UACC-257 melanoma
UACC-62 melanoma = test system: UACC-62 melanoma
UO-31 renal = test system: UO-31 renal

## COC(=O)[C@H](Cc1cnc[nH]1)NC(=O)[C@@H](NC(=O)Nc1cc(C(F)(F)F)cc(C(F)(F)F)c1)C(C)C
NCI-H23 lung
  GI50: 16.4 µM
  TGI: 31.7 µM
NCI-H460 lung
  GI50: 18.7 µM
  TGI: 37.3 µM
NCI-H522 lung
  GI50: 13.1 µM
  TGI: 27 µM
NCI/ADR-RES ovarian
  GI50: 33.7 µM
  TGI: > 100 µM
OVCAR-3 ovarian
  GI50: 14.7 µM
  TGI: 28.3 µM
OVCAR-4 ovarian
  GI50: 15 µM
  TGI: 29 µM
OVCAR-5 ovarian
  GI50: 16.5 µM
  TGI: 31.1 µM
OVCAR-8 ovarian
  GI50: 16.5 µM
  TGI: 31.6 µM
PC-3 prostate
  GI50: 14.5 µM
  TGI: 28.4 µM
RPMI-8226 leukemia
  GI50: 16.1 µM
  TGI: 38.9 µM
RXF 393 renal
  GI50: 13.6 µM
  TGI: 27.5 µM
SF-268 CNS
  GI50: 15.2 µM
  TGI: 31.1 µM
SF-295 CNS
  GI50: 16.1 µM
  TGI: 31.8 µM
SF-539 CNS
  GI50: 17 µM
  TGI: 32.3 µM
SK-MEL-28 melanoma
  GI50: 15.7 µM
  TGI: 29.2 µM
SK-MEL-5 melanoma
  GI50: 17.1 µM
  TGI: 31.1 µM
SK-OV-3 ovarian
  GI50: 18.5 µM
  TGI: 32.5 µM
SN12C renal
  GI50: 14.5 µM
  TGI: 28 µM
SNB-19 CNS
  GI50: 10.9 µM
  TGI: 23.2 µM
SNB-75 CNS
  GI50: 13.5 µM
  TGI: 27 µM
SR leukemia
  GI50: 13.2 µM
  TGI: 32.8 µM
SW-620 colon
  GI50: 18 µM
  TGI: 35.5 µM
T-47D breast
  GI50: 12.4 µM
  TGI: 28 µM
TK-10 renal
  GI50: 16.6 µM
  TGI: 30.7 µM
UACC-257 melanoma
  GI50: 15.7 µM
  TGI: 29.9 µM
UACC-62 melanoma
  GI50: 13.9 µM
  TGI: 27.2 µM
UO-31 renal
  GI50: 15 µM
  TGI: 29.5 µM
